{"source": "patent US20190218588A1", "about": "“NOVEL CELL CULTURE METHOD, CELL CULTURE SYSTEM AND USES THEREOF” (priority 2016, published 2019)", "system": "human hepatocytes cultured in human plasma medium", "assay_type": "cell-based"}
{"smiles": "COc1cc2c(c3oc(=O)c4c(c13)CCC4=O)[C@@H]1C=CO[C@@H]1O2", "note": "[Aflatoxin B1]", "values": [{"measurement": "UC50 value after day 10 treatment relative to 2-day treatment (fold lower)", "value": 19, "unit": "×"}, {"measurement": "cytotoxicity to human hepatocytes", "value": "cytotoxic"}]}
